Test [1] can be described thus: FRAP (ferric ion reducing antioxidant power) assay. Conditions: mean ± SD, three experiments.
Test [2] is described as follows: DPPH radical scavenging assay. The settings on record: mean ± SD, three experiments. The protocol: The antiradical activity was determined using the stable 1,1-diphenyl-2-picrylhydrazyl radical (DPPH) following the protocol of Brand-Williams with some modifications reported by De Martino and coworkers.
In general terms: The DPPH test is a chemical assay of radical scavenging.

Test [3] concerns AChE. Conditions: cited from earlier work.

Marks after values point to notes of the source that are not given here.

Take `Cc1c(C)c2c(c(C)c1O)CCC(C)(C(=O)O)O2` (stereo not shown) [Trolox, 6-hydroxy-2,5,7,8-tetramethylchroman-2-carboxylic acid]: the FRAP in test [1] was 5.48 ± 0.34 ^a mmol Fe^2+ Equivalents/g Extract. Moreover, the “DPPH IC50 (concentration required to reduce the absorbance of DPPH by 50%)” value in test [2] was 3.65 ± 0.08 ^c µg/mL.

In the case of `COc1ccc(-c2cc(=O)c3c(O)c(OC)c(OC)cc3o2)cc1` [salvigenin, Salvigenin], in test [3], the “activity on AChE” value was “not active” and the “effect on the AChE enzyme” value was “stimulating effect”.

(Values after publication PMC10451299, “Phytochemical Constituents and Biological Activity of Wild and Cultivated Rosmarinus officinalis Hydroalcoholic Extracts” (Antioxidants, 2023).)
